pIC50: −log10 of the molar value. Where two headings read alike, the source gives them in different places. Blank lines part the entries; values can stand above or below the molecule they belong to.
What was measured:
[1] = biological target: T1, wildtype human LRRK2 (Homo sapiens, UniProt Q5S007); assay: Adapta assay, inhibition of wildtype human LRRK2 kinase fragment with LRRKtide; type: biochemical
T1 construct: human LRRK2 protein fragment encompassing amino acids 1326 to 2527; GST; made in house
T1 sequence (Q5S007 1326-2527): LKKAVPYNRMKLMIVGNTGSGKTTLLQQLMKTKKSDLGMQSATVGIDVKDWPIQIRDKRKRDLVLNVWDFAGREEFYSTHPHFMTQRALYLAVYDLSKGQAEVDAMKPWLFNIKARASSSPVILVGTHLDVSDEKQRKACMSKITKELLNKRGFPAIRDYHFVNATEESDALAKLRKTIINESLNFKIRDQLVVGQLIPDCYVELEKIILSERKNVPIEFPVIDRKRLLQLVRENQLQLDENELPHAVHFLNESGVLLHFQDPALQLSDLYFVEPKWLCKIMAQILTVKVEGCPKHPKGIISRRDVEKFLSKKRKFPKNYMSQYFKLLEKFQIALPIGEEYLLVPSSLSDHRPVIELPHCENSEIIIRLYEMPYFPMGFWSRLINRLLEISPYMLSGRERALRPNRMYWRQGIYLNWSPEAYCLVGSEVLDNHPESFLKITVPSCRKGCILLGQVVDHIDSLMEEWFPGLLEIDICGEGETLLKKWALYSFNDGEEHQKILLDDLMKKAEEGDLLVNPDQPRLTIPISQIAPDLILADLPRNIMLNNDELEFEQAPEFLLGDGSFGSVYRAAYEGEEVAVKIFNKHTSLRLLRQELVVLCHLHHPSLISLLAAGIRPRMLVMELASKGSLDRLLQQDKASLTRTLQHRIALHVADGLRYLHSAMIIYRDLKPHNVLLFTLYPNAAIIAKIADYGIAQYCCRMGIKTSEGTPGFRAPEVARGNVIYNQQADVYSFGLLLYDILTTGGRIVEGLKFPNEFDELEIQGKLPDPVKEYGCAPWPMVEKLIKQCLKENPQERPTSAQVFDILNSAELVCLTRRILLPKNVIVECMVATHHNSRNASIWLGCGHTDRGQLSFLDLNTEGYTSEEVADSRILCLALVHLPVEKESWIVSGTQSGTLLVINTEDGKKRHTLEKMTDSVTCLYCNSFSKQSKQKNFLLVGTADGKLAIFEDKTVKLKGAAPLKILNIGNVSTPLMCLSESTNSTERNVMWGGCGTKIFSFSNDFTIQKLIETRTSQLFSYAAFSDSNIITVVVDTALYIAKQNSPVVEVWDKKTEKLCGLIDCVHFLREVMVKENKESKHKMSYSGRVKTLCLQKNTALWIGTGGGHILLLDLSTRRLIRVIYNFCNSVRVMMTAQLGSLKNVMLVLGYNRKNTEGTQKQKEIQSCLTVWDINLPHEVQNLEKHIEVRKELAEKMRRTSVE

[2] = biological target: ERK2 (Homo sapiens, UniProt P28482); assay: Kinase specificity, ERK2; type: biochemical; conditions: 100 μM ATP
[3] = biological target: Cdk1 (Homo sapiens, UniProt P06493); assay: Kinase specificity, Cdk1; type: biochemical; conditions: 100 μM ATP
[4] = biological target: LRRK2 (Homo sapiens, UniProt Q5S007); conditions: Covy and Giasson 2009; Anand et al. 2009; cited from earlier work
[5] = biological target: PKC; assay: Kinase specificity, PKC; type: biochemical; conditions: 100 μM ATP
[6] = biological target: GSK3; assay: Kinase specificity, GSK3; type: biochemical; conditions: 100 μM ATP
[7] = biological target: PKA; assay: Kinase specificity, PKA; type: biochemical; conditions: 100 μM ATP
[8] = system: R1441C LRRK2 transgenic C. elegans; assay: Food-sensing (slowing) response in LRRK2 transgenic C. elegans; type: in vivo; conditions: 2 mM added to the assay, FIG. 5 inset
Method: Dopaminergic neurons in C. elegans are involved in food sensing behavior such that in the absence of food worms move more rapidly, as assessed by determining their bending frequency on an agar plate not supplied with food. In an established assay the animals are then exposed to food, and the difference in motility is recorded in the form of bending frequency [Sawin et al., Neuron 26, 619-631 (2000)]. […] In approximate synchrony with the dopaminergic neurodegeneration this slowing response is essentially eliminated after 4 days. […] The slowing response can be reconstituted to a substantial degree by supplementation with dopamine, confirming that the phenotype is due to loss of dopaminergic input (FIG. 5).
The clear-cut functional phenotype of this model can be used to determine the efficacy of LRRK2 kinase inhibitors and the accurate determination of their potency in a biological context. […] The potency is expressed as the half-maximal restoration of the slowing response. […]
The functional consequence of dopaminergic neurodegeneration was assayed using the food-sensing response resulting in a slowing of motility after food exposure as assessed by the frequency of body bending within 20 second intervals in groups of 10 animals [Sawin et al., Neuron 26, 619-631 (2000)]. […]

[9] = Lethal plasma concentration after single dosing; type: in vivo; conditions: read-out: LC50 as plasma concentration

Chain of Cdk1 (P06493 whole entry, species assumed): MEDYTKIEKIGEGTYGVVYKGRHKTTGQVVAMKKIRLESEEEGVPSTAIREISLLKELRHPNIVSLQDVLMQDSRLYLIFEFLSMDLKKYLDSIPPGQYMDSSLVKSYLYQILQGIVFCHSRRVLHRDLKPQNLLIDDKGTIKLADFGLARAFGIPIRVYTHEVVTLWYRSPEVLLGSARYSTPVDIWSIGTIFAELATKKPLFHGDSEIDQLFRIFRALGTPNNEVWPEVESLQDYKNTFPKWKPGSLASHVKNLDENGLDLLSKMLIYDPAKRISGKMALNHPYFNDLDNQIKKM
Chain of Cdk1 (P14635 whole entry partner, species assumed): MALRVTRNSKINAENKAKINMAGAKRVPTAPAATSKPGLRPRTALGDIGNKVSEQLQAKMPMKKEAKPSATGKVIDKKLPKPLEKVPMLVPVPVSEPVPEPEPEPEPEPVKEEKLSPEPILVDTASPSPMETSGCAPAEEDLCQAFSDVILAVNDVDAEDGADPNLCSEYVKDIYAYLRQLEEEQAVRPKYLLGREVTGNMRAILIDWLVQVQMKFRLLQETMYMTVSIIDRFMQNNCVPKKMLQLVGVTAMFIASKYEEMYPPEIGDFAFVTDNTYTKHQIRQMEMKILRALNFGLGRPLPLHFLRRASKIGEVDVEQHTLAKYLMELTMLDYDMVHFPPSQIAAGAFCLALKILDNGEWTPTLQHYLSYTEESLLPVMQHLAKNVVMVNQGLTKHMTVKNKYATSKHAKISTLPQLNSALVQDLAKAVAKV
Chain of LRRK2 (Q5S007 whole entry): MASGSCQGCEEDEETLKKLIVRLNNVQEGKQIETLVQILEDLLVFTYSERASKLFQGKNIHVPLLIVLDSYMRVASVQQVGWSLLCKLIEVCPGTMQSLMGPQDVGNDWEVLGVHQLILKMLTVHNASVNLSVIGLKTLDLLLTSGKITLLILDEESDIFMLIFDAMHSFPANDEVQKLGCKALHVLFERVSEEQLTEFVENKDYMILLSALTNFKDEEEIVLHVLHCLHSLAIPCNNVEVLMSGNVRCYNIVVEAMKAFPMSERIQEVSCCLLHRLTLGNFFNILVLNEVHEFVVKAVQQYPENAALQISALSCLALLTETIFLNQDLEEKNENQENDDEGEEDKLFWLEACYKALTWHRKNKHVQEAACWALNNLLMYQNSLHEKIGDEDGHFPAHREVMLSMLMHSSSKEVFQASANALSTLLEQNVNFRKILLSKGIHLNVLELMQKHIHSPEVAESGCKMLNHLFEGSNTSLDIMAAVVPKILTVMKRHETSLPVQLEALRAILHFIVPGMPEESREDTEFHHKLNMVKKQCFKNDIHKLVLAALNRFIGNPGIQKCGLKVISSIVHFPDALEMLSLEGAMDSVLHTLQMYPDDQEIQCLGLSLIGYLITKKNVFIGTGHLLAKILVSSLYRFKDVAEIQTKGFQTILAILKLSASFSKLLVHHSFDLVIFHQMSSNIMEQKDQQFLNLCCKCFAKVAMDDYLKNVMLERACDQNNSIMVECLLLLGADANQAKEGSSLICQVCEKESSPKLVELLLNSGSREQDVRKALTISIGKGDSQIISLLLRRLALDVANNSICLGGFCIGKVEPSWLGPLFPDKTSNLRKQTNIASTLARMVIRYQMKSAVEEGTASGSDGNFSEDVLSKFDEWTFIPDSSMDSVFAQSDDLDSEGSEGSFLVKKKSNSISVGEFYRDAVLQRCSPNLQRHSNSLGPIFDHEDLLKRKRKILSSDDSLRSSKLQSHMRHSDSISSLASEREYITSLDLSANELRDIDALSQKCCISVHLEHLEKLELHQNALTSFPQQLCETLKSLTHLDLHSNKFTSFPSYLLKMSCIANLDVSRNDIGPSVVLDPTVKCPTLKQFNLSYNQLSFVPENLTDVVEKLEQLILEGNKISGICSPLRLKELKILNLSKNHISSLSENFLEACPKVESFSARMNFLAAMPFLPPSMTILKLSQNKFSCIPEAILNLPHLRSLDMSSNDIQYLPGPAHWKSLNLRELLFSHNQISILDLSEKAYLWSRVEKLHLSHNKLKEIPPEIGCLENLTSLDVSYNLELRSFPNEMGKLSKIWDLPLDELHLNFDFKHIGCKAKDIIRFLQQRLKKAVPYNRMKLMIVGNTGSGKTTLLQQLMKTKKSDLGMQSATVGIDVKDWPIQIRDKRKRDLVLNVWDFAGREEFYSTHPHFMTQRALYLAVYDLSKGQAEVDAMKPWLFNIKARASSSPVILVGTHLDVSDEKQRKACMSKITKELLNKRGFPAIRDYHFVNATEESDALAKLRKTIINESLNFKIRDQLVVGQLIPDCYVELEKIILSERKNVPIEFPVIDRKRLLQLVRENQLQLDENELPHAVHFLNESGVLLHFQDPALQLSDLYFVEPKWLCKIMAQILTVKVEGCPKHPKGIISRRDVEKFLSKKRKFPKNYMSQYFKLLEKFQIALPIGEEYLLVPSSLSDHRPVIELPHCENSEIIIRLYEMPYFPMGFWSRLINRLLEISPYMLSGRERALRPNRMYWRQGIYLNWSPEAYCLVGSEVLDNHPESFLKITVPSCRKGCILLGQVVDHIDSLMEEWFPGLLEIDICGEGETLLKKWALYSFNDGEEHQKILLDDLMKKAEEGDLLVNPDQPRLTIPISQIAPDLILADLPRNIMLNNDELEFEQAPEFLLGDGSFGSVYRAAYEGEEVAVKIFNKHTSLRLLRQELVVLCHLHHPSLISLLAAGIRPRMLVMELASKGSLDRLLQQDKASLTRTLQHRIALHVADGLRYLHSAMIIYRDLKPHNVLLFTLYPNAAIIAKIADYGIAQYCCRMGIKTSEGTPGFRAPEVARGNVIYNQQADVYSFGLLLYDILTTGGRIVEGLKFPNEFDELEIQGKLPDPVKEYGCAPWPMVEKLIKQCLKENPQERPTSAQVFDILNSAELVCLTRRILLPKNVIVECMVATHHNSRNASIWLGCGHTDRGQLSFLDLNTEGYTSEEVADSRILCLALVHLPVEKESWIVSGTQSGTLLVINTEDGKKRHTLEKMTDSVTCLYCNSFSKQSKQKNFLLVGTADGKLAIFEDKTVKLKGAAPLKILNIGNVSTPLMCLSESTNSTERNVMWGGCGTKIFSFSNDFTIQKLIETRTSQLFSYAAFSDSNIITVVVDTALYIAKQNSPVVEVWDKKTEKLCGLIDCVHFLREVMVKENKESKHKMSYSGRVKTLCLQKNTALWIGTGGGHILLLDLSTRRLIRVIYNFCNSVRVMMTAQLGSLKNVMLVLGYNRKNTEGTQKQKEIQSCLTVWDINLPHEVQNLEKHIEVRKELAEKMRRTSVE
Chain of ERK2 (P28482 whole entry, species assumed): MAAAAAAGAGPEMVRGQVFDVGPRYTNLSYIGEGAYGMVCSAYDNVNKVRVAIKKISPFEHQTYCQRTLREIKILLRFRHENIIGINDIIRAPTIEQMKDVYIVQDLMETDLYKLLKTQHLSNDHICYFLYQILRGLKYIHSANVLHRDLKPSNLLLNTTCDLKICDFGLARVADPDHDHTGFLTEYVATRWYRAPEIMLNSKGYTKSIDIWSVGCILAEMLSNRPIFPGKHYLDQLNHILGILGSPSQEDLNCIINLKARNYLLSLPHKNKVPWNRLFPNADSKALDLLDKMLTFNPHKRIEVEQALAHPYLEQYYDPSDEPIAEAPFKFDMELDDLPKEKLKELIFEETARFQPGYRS

SMILES: COC(=O)[C@@]1(N)CC2OC1(C)n1c3ccccc3c3c4c(c5c6ccccc6n2c5c31)C(=O)NC4 (stereo partly drawn) [Compound 5]
pIC50 ([1]; 100 μM ATP, read-out: LRRK2): 9.00
pIC50 ([1]; 100 microM ATP, read-out: LRRK2 inhibitory potency (essentially receptor-limited)): ≥ 9.00
pIC50 [2]: 6.46
pIC50 [3]: 6.59

SMILES: COC(=O)[C@@]1(O)C[C@H]2O[C@]1(C)n1c3ccccc3c3c4c(c5c6ccccc6n2c5c31)C(=O)NC4 [Compound K252a, K252a, reference compound]
Activity as inhibitor of LRRK2 [4]: active as inhibitors of LRRK2
pIC50 [1]: 6.66
Potency for LRRK2 inhibition lower than that of compound 5 ([1]; direct comparison): more than 2 orders of magnitude
pIC50 [2]: 6.92
pIC50 [5]: 5.30
pIC50 [6]: < 5.00
pIC50 [7]: 5.47
pIC50 [3]: 6.51

SMILES: Cl.NCCc1ccc(O)c(O)c1 [dopamine hydrochloride, reference compound]
Loss of the food-sensing response in impaired LRRK2 worms [8]: partially rescued

SMILES: CN[C@@H]1C[C@H]2O[C@@](C)([C@@H]1OC)n1c3ccccc3c3c4c(c5c6ccccc6n2c5c31)C(=O)NC4 [staurosporine]
Activity as inhibitor of LRRK2 [4]: active as inhibitors of LRRK2
LC50 [9]: 0.2 to 0.3 µM

Now from value to molecule:

pIC50 ([1]; 100 μM ATP, read-out: LRRK2): 9.00
SMILES: CC12OC(C[C@]1(N)CO)n1c3ccccc3c3c4c(c5c6ccccc6n2c5c31)CNC4=O (stereo partly drawn) [Compound 13]

pIC50 ([1]; 100 μM ATP, read-out: LRRK2): 8.92
SMILES: CNC(=O)[C@@]1(N)CC2OC1(C)n1c3ccccc3c3c4c(c5c6cc(Br)ccc6n2c5c31)C(=O)NC4 (stereo partly drawn) [Compound 14]

pIC50 ([1]; 100 μM ATP, read-out: LRRK2): 8.82
SMILES: CNC(=O)C1(N)CC2OC1(C)n1c3ccc(Br)cc3c3c4c(c5c6cc(Br)ccc6n2c5c31)C(=O)NC4 (stereo not drawn) [Compound 15]
